Test results taken from ChEMBL document CHEMBL3992523, “Potent Inhibition of Nitric Oxide-Releasing Bifendate Derivatives against Drug-Resistant K562/A02 Cells in Vitro and in Vivo” (J Med Chem, 2017).
Calls of active or inactive are those of the source.

Key:
[1] = system: K562; assay: Anti-proliferative activity against human K562 cells measured after 72 hrs by MTS assay; format: functional, cell-based; conditions: K562, 72 h
[2] = system: K562/A02; assay: Anti-proliferative activity against P-gp overexpressing/drug resistant human K562/A02 cells measured after 72 hrs by MTS assay; format: functional, cell-based; conditions: K562/A02, 72 h
[3] = Resistant factor, ratio of IC50 for P-gp overexpressing/drug resistant human K562/A02 cells to IC50 for human K562 cells; format: functional
[4] = Permeability in human Caco2 cells assessed as concentration ratio of basolateral to apical side at 100 uM measured at 5 mins post dose by HPLC analysis; format: ADME, cell-based; conditions: caco-2, 5 min
[5] = Permeability in human Caco2 cells assessed as concentration ratio of basolateral to apical side at 100 uM measured at 10 mins post dose by HPLC analysis; format: ADME, cell-based; conditions: caco-2, 10 min
[6] = Drug metabolism in P-gp overexpressing/drug resistant human K562/A02 cells assessed as nitric oxide production at 100 uM measured at 240 mins by Griess assay; format: ADME, cell-based; conditions: k562/a02, 4 h
[7] = Drug metabolism in P-gp overexpressing/drug resistant human K562/A02 cells assessed as nitric oxide production at 100 uM in presence of hemoglobin measured over 30 to 300 mins by Griess assay; format: ADME, cell-based; conditions: k562/a02, 100 µM
[8] = system: K562/A02; assay: Anti-proliferative activity against P-gp overexpressing/drug resistant human K562/A02 cells assessed as decrease in cell survival at 1 uM in presence of hemoglobin measured after 24 hrs by MTS assay; format: functional, cell-based
[9] = Drug metabolism in P-gp overexpressing/drug resistant human K562/A02 cells assessed as nitric oxide production at 20 uM by DAF-FMDA staining based fluorescent microscopic analysis; format: ADME, cell-based; conditions: k562/a02, 20 µM, TDE = time-dependent effect
[10] = Drug metabolism in P-gp overexpressing/drug resistant human K562/A02 cells assessed as nitric oxide production at 20 uM up to 6 hrs by Griess assay; format: ADME, cell-based; conditions: k562/a02, 6 h
[11] = system: Mus musculus; assay: Toxicity in BALB/c nude mouse assessed as abnormality in eating at 1000 mg/kg, iv measured up to 14 days; format: organism-based; conditions: in vivo, 336 h
[12] = system: Mus musculus; assay: Toxicity in BALB/c nude mouse assessed as abnormality in drinking at 1000 mg/kg, iv measured up to 14 days; format: organism-based; conditions: in vivo, 336 h
[13] = system: Mus musculus; assay: Toxicity in BALB/c nude mouse assessed as change in body weight at 1000 mg/kg, iv measured up to 14 days; format: organism-based; conditions: in vivo, 336 h
[14] = system: K562/A02; assay: Antitumor activity against P-gp overexpressing/drug resistant human K562/A02 cells xenografted in BALB/c nude mouse assessed as reduction in tumor volume at 120 mg/kg, iv administered every other day for 21 days measured every other day during dosing; format: functional, organism-based
[15] = system: K562/A02; assay: Antitumor activity against P-gp overexpressing/drug resistant human K562/A02 cells xenografted in BALB/c nude mouse assessed as reduction in tumor weight at 120 mg/kg, iv administered every other day for 21 days measured post last dose; format: functional, organism-based
[16] = system: K562/A02; assay: Antitumor activity against P-gp overexpressing/drug resistant human K562/A02 cells xenografted in BALB/c nude mouse assessed as tumor growth inhibition at 120 mg/kg, iv administered every other day for 21 days measured post last dose relative to control; format: functional; conditions: 504 h, read-out: TGI
[17] = system: K562/A02; assay: Effect on P-gp expression in P-gp overexpressing/drug resistant human K562/A02 cells up to 8 uM by Western blot analysis; format: functional, cell-based
[18] = system: K562/A02; assay: Effect on P-gp expression in P-gp overexpressing/drug resistant human K562/A02 cells up to 8 uM by RT-PCR method; format: functional, cell-based
[19] = species: Homo sapiens; assay: Inhibition of P-gp in human K562/A02 cells assessed as increase in intracellular rhodamine123 accumulation at 0.33 to 10 uM measured after 1 hr by flow cytometry; format: cell-based
[20] = system: K562; assay: Effect on rhodamine123 accumulation in human K562 cells at 0.33 to 10 uM measured after 1 hr by flow cytometry; format: functional, cell-based
[21] = species: Homo sapiens; assay: Effect on P-gp ATPase activity in human K562/A02 cell membranes assessed as remaining ATP level by measuring relative light units at 40 uM in presence of MgATP measured after 40 mins by luminescence based P-gp-Glo assay (reference value: 216508 +/- 7426 RLU)
[22] = species: Homo sapiens; assay: Inhibition of NF-kappaB phosphorylation in human K562/A02 cells at 2 uM in presence of hemoglobin measured after 24 hrs by Western blot analysis; format: cell-based
[23] = system: K562/A02; assay: Induction of nitration of mitochondrial cytochrome c in P-gp overexpressing/drug resistant human K562/A02 cells at 10 uM measured after 24 hrs by Western blot analysis; format: functional, cell-based
[24] = system: K562/A02; assay: Induction of nitration of mitochondrial cytochrome c in P-gp overexpressing/drug resistant human K562/A02 cells at 10 uM in presence of hemoglobin measured after 24 hrs by Western blot analysis; format: functional, cell-based
[25] = system: Mus musculus; assay: Induction of nitration of mitochondrial cytochrome c in tumor of iv dosed BALB/c nude mouse xenografted with P-gp overexpressing/drug resistant human K562/A02 cells administered every other day for 21 days by Western blot analysis; format: functional, organism-based
[26] = species: Homo sapiens; assay: Induction of nitration of P-gp in P-gp overexpressing/drug resistant human K562/A02 cells at 10 uM measured after 24 hrs by Western blot analysis
[27] = species: Homo sapiens; assay: Induction of nitration of P-gp in P-gp overexpressing/drug resistant human K562/A02 cells at 10 uM in presence of hemoglobin measured after 24 hrs by Western blot analysis
[28] = system: K562/A02; assay: Down regulation of HIF-alpha expression in P-gp overexpressing/drug resistant human K562/A02 cells at 8 uM after 24 hrs by Western blot analysis; format: functional, cell-based
[29] = species: Homo sapiens; assay: Inhibition of NF-kappaB phosphorylation in P-gp overexpressing/drug resistant human K562/A02 cells at 8 uM after 24 hrs by Western blot analysis
[30] = target: RAC-alpha serine/threonine-protein kinase (Homo sapiens) (UniProt P31749); assay: Inhibition of AKT phosphorylation in P-gp overexpressing/drug resistant human K562/A02 cells at 8 uM after 24 hrs by Western blot analysis
RAC-alpha serine/threonine-protein kinase (Homo sapiens), sequence (P31749 whole entry): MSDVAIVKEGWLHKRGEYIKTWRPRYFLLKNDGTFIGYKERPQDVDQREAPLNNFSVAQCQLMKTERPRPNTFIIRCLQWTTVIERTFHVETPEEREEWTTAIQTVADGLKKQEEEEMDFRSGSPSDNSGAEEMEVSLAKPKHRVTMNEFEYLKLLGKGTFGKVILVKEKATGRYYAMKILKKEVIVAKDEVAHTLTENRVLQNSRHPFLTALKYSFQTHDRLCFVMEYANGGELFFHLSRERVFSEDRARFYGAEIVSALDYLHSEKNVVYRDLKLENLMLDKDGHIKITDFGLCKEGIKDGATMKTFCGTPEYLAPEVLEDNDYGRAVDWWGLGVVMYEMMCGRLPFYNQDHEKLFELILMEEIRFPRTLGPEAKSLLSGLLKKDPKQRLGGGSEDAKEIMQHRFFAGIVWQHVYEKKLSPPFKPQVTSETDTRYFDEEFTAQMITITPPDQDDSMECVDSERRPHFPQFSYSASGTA

[31] = species: Homo sapiens; assay: Inhibition of ERK phosphorylation in P-gp overexpressing/drug resistant human K562/A02 cells at 8 uM after 24 hrs by Western blot analysis
[32] = system: K562/A02; assay: Down regulation of HIF-alpha expression in P-gp overexpressing/drug resistant human K562/A02 cells at 1 uM measured after 48 hrs by Western blot analysis; format: functional, cell-based
[33] = species: Homo sapiens; assay: Inhibition of NF-kappaB phosphorylation in human K562/A02 cells at 1 uM measured after 48 hrs by Western blot analysis; format: cell-based
[34] = target: RAC-alpha serine/threonine-protein kinase (Homo sapiens) (UniProt P31749); assay: Inhibition of AKT phosphorylation in human K562/A02 cells at 1 uM measured after 48 hrs by Western blot analysis; format: cell-based
[35] = species: Homo sapiens; assay: Inhibition of ERK phosphorylation in human K562/A02 cells at 1 uM measured after 48 hrs by Western blot analysis; format: cell-based
[36] = system: K562/A02; assay: Down regulation of HIF-alpha expression in human K562/A02 cells at 2 uM in presence of hemoglobin measured after 24 hrs by Western blot analysis; format: functional, cell-based
[37] = target: RAC-alpha serine/threonine-protein kinase (Homo sapiens) (UniProt P31749); assay: Inhibition of AKT phosphorylation in human K562/A02 cells at 2 uM in presence of hemoglobin measured after 24 hrs by Western blot analysis; format: cell-based
[38] = species: Homo sapiens; assay: Inhibition of ERK phosphorylation in human K562/A02 cells at 2 uM in presence of hemoglobin measured after 24 hrs by Western blot analysis; format: cell-based
[39] = system: Mus musculus; assay: Toxicity in BALB/c nude mouse assessed as effect on survival at 1000 mg/kg, iv measured up to 14 days; format: organism-based; conditions: in vivo, 336 h
[40] = system: Mus musculus; assay: Toxicity in P-gp overexpressing/drug resistant human K562/A02 cells xenografted BALB/c nude mouse assessed as change in body weight at 120 mg/kg, iv administered every other day for 21 days measured on day 2,4,6,8,10,12,14,16,18,20,22 of dosing; format: organism-based; conditions: in vivo, 504 h

COC(=O)c1cc(OC)c2c(c1-c1c(C(=O)OC3CCN(CC(=O)OCCCCOc4no[n+]([O-])c4S(=O)(=O)c4ccccc4)CC3)cc(OC)c3c1OCO3)OCO2
241000 RLU: Activity [21]
0.8: Ratio IC50 [3]
550 nM: IC50 [2]
Tde: Drug metabolism [9]
inactive: Activity [8] | Activity [17] | Activity [18] | Activity [20] | inhibition [22] | Activity [24] | Activity [27] | Activity [36] | inhibition [37] | inhibition [38]
690 nM: IC50 [1]
active: Activity [14] | Activity [15] | inhibition [19] | Activity [23] | Activity [25] Dose-dependent effect | Activity [26] | Activity [28] | inhibition [29] | inhibition [30] | inhibition [31] | Activity [32] | inhibition [33] | inhibition [34] | inhibition [35]
Metabolite_Detected: Drug metabolism [6] | Drug metabolism [10]
51.4%: inhibition in vivo at 120 mg/kg [16]
0.53: Ratio [5]
Non-Toxic: Activity [11] | Activity [12] | Activity [13] | Activity [39] | Activity [40]
0.14: Ratio [4]
Metabolite_Notdetected: Drug metabolism [7]
